Tests used:
[1] = system: HT-29; assay: Antiproliferative activity against human HT-29 cells assessed as reduction in cell growth incubated for 48 hrs by MTT assay; type: functional, cell-based; settings: HT-29, 48 h
[2] = system: A549; assay: Antiproliferative activity against human A549 cells assessed as reduction in cell growth incubated for 48 hrs by MTT assay; type: functional, cell-based; settings: A549, 48 h
[3] = system: HT-29; assay: Induction of apoptosis in human HT-29 cells assessed as viable cells at 15 uM incubated for 48 hrs by annexin V-FITC and PI staining based flow cytometry analysis (reference value: 88.2 %); type: functional; settings: read-out: Activity
[4] = system: HT-29; assay: Induction of apoptosis in human HT-29 cells assessed as early apoptotic cells at 15 uM incubated for 48 hrs by annexin V-FITC and PI staining based flow cytometry analysis (reference value: 1.01 %); type: functional
[5] = system: HT-29; assay: Induction of apoptosis in human HT-29 cells assessed as necrotic cells at 15 uM incubated for 48 hrs by annexin V-FITC and PI staining based flow cytometry analysis (reference value: 9.68 %); type: functional
[6] = system: HT-29; assay: Induction of cell cycle arrest in human HT-29 cells assessed as G1 phase accumulation at 15 uM incubated for 48 hrs by PI staining based flow cytometry analysis (reference value: 56.39 %); type: functional
[7] = system: HT-29; assay: Induction of cell cycle arrest in human HT-29 cells assessed as S phase accumulation at 15 uM incubated for 48 hrs by PI staining based flow cytometry analysis (reference value: 36.98 %); type: functional
[8] = system: HT-29; assay: Induction of cell cycle arrest in human HT-29 cells assessed as G2 phase accumulation at 15 uM incubated for 48 hrs by PI staining based flow cytometry analysis (reference value: 11.7 %); type: functional
[9] = system: HT-29; assay: Induction of cell cycle arrest in human HT-29 cells assessed as subG1 phase accumulation at 15 uM incubated for 48 hrs by PI staining based flow cytometry analysis (reference value: 0.06 %); type: functional

| Structure (SMILES) | IC50 [1] [µM] | IC50 [2] [µM] | also measured |
| --- | --- | --- | --- |
| O=C(Nc1ccc(OC(=O)c2ccc(Cl)cc2)cc1)Nc1ccc(Cl)c(C(F)(F)F)c1 | 8.32 | 6.62 | – |
| COc1ccc(C(=O)Oc2ccc(NC(=O)Nc3ccccc3)cc2)cc1 | 175 | 60.2 | – |
| O=C(Nc1ccc(F)cc1)Nc1ccc(OC(=O)c2ccccc2)cc1 | 94.4 | 29.7 | – |
| O=C(Nc1ccc(Cl)cc1)Nc1ccc(OC(=O)c2ccccc2)cc1 | 56 | 24.7 | – |
| Cc1ccc(C(=O)Oc2ccc(NC(=O)Nc3ccccc3)cc2)cc1 | 19.9 | 18.9 | – |
| O=C(Nc1ccccc1)Nc1ccc(OC(=O)c2ccc(F)cc2)cc1 | 128 | 38.5 | – |
| O=C(Nc1ccccc1)Nc1ccc(NC(=O)c2ccccc2)cc1 | 12.7 | 23.9 | – |
| CC(=O)c1cccc(NC(=O)Nc2ccc(OC(=O)c3cc4cc([N+](=O)[O-])ccc4s3)cc2)c1 | 457 | 61.5 | – |
| CNC(=O)c1cc(Oc2ccc(NC(=O)Nc3ccc(Cl)c(C(F)(F)F)c3)cc2)ccn1 [SORAFENIB] | 17.3 | 5.62 | viability at 15 µM [3]: 81.3%; Activity [4]: 5.76%; Activity [5]: 8.72%; Activity [6]: 75.23%; Activity [7]: 12.19%; Activity [8]: 14.54%; Activity [9]: 1.69% |

Source: ChEMBL document CHEMBL4765379, “Synthesis and biological evaluation of diaryl urea derivatives designed as potential anticarcinoma agents using de novo structure-based lead optimization approach” (Eur J Med Chem, 2020)
